Source: patent publication US20260027068A1, “METHODS OF ADM[…]-KETAMINE” (Perception Neuroscience, Inc., priority 2022, published 2026)

Key:
subjects with TRD [1] = test: Modified Observer's Assessment of Alertness/Sedation (MOAA/S); conditions: 60 mg
Description: (§1) The Investigational Medicinal Product (IMP) R(−)-ketamine hydrochloride in sterile water for intravenous injection was investigated as an […] treatment of TRD. The International Union of Pure and Applied Chemistry (IUPAC) name is of the IMP is (2R)-2-(2-chlorophenyl)-2-(methylamino)cyclohexan-1-one. Subjects received the solution at either 30 mg or 60 mg dose, or a placebo. The IMP or placebo was administered on Day 1 as a single IV infusion via an electronic infusion pump over 40 minutes. The duration of study participation for each subject was up to 29 days including a screening period, a 3-day in-clinic visit, and 2 follow-up visits. 101 subjects were enrolled in approximately 20 study centers in the EU and the US.
The MOAA/S will were to determine if R(−)-ketamine causes the side effect of sedation and to what degree. Sedation was evaluated by the study staff using the MOAA/S. The observer recorded the subject's alertness pre-dose, every 20 minutes for first 2 hours post-dose, and at 4 and 6 hours after the start of the infusion.

subjects with TRD [2] = test: Clinician-Administered Dissociative States Scale (CADSS)
Description: as §1
The CADSS was to assess the alertness or dissociative state of subjects administered R(−)-ketamine. The study staff evaluated the subject's degree of dissociation by administering the CADSS questionnaire pre-dose; at 40 minutes post-dose (at EoI); and at 2 and 4 hours post-dose.

[3] = 1 hour 40 min post start of infusion, n 35
[4] = 1 hour 50 min post start of infusion, n 11
[5] = 1 hour post start of infusion, n 35
[6] = to 1 hour 10 min post-start, n 11
[7] = to 1 hour 20 min post-start, n 34
[8] = to 1 hour 30 min post-start, n 11
[9] = to 1 hour 40 min post-start, n 35
[10] = to 1 hour 50 min post-start, n 11
[11] = 30 mg, 40 min post infusion start, n 33
[12] = 30 mg, 2 hours post infusion start, n 33
[13] = 30 mg, 4 hours post infusion start, n 33
[14] = 30 mg, 6 hours post infusion start, n 10
[15] = 30 mg, to 40 min post infusion start, n 33
[16] = 30 mg, to 2 hours post infusion start, n 33
[17] = 30 mg, to 4 hours post infusion start, n 33
[18] = 60 mg, 40 min post infusion start, n 35
[19] = 60 mg, 2 hours post infusion start, n 35
[20] = 60 mg, 4 hours post infusion start, n 34
[21] = 60 mg, 6 hours post infusion start, n 11
[22] = 60 mg, to 40 min post infusion start, n 35
[23] = 60 mg, to 2 hours post infusion start, n 35
[24] = 60 mg, to 4 hours post infusion start, n 34

CN[C@@]1(c2ccccc2Cl)CCCCC1=O [PCN 101]
1.1: CADSS score, Mean (subjects with TRD [2]; [12]) | CADSS change from baseline, Mean (subjects with TRD [2]; [16]) | CADSS score, Mean (subjects with TRD [2]; [19])
0.3: CADSS score, Mean (subjects with TRD [2]; [20])
−0.2: MOAA/S change from baseline, Mean (subjects with TRD [1]; to 20 min post-start, n 35) | MOAA/S change from baseline, Mean (subjects with TRD [1]; to 40 min post-start, n 35) | MOAA/S change from baseline, Mean (subjects with TRD [1]; [7]) | MOAA/S change from baseline, Mean (subjects with TRD [1]; [9]) | MOAA/S change from baseline, Mean (subjects with TRD [1]; to 1 hour post-start, n 35) | MOAA/S change from baseline, Mean (subjects with TRD [1]; to 2 hours, n 35)
5.0: MOAA/S score, Median (subjects with TRD [1]; [3]) | MOAA/S score, Mean (subjects with TRD [1]; [4]) | MOAA/S score, Median (subjects with TRD [1]; [4]) | MOAA/S score, Median (subjects with TRD [1]; [5]) | MOAA/S score, Median (subjects with TRD [1]; 2 hours, n 35) | MOAA/S score, Median (subjects with TRD [1]; 4 hours, n 32) | MOAA/S score, Mean (subjects with TRD [1]; 6 hours, n 32) | MOAA/S score, Median (subjects with TRD [1]; 6 hours, n 32)
4.9: MOAA/S score, Mean (subjects with TRD [1]; 4 hours, n 32)
4.8: MOAA/S score, Mean (subjects with TRD [1]; [3]) | MOAA/S score, Mean (subjects with TRD [1]; [5]) | MOAA/S score, Mean (subjects with TRD [1]; 2 hours, n 35)
4.3: CADSS score, Mean (subjects with TRD [2]; [18])
3.9: CADSS score, Mean (subjects with TRD [2]; [11]) | CADSS change from baseline, Mean (subjects with TRD [2]; [15])
0.4: CADSS score, Mean (subjects with TRD [2]; [13]) | CADSS change from baseline, Mean (subjects with TRD [2]; [17])
−0.1: MOAA/S change from baseline, Mean (subjects with TRD [1]; to 10 min post-start, n 11) | MOAA/S change from baseline, Mean (subjects with TRD [1]; to 30 min post-start, n 11) | MOAA/S change from baseline, Mean (subjects with TRD [1]; to 50 min post-start, n 11) | MOAA/S change from baseline, Mean (subjects with TRD [1]; to 4 hours, n 32) | CADSS change from baseline, Mean (subjects with TRD [2]; 30 mg, to 6 hours, n 10)
4.0: CADSS change from baseline, Mean (subjects with TRD [2]; [22])
−0.0: CADSS change from baseline, Mean (subjects with TRD [2]; [24])
0.0: MOAA/S change from baseline, Median (subjects with TRD [1]; to 10 min post-start, n 11) | MOAA/S change from baseline, Median (subjects with TRD [1]; to 20 min post-start, n 35) | MOAA/S change from baseline, Median (subjects with TRD [1]; to 30 min post-start, n 11) | MOAA/S change from baseline, Median (subjects with TRD [1]; to 40 min post-start, n 35) | MOAA/S change from baseline, Median (subjects with TRD [1]; to 50 min post-start, n 11) | MOAA/S change from baseline, Mean (subjects with TRD [1]; [6]) | MOAA/S change from baseline, Median (subjects with TRD [1]; [6]) | MOAA/S change from baseline, Median (subjects with TRD [1]; [7]) | MOAA/S change from baseline, Mean (subjects with TRD [1]; [8]) | MOAA/S change from baseline, Median (subjects with TRD [1]; [8]) | MOAA/S change from baseline, Median (subjects with TRD [1]; [9]) | MOAA/S change from baseline, Mean (subjects with TRD [1]; [10]) | MOAA/S change from baseline, Median (subjects with TRD [1]; [10]) | MOAA/S change from baseline, Median (subjects with TRD [1]; to 1 hour post-start, n 35) | MOAA/S change from baseline, Median (subjects with TRD [1]; to 2 hours, n 35) | MOAA/S change from baseline, Median (subjects with TRD [1]; to 4 hours, n 32) | MOAA/S change from baseline, Mean (subjects with TRD [1]; to 6 hours, n 32) | MOAA/S change from baseline, Median (subjects with TRD [1]; to 6 hours, n 32) | CADSS score, Median (subjects with TRD [2]; [12]) | CADSS score, Median (subjects with TRD [2]; [13]) | CADSS score, Mean (subjects with TRD [2]; [14]) | CADSS score, Median (subjects with TRD [2]; [14]) | CADSS change from baseline, Median (subjects with TRD [2]; [16]) | CADSS change from baseline, Median (subjects with TRD [2]; [17]) | CADSS change from baseline, Median (subjects with TRD [2]; 30 mg, to 6 hours, n 10) | CADSS score, Median (subjects with TRD [2]; [18]) | CADSS score, Median (subjects with TRD [2]; [19]) | CADSS score, Median (subjects with TRD [2]; [20]) | CADSS score, Mean (subjects with TRD [2]; [21]) | CADSS score, Median (subjects with TRD [2]; [21]) | CADSS change from baseline, Median (subjects with TRD [2]; [22]) | CADSS change from baseline, Median (subjects with TRD [2]; [23]) | CADSS change from baseline, Median (subjects with TRD [2]; [24]) | CADSS change from baseline, Mean (subjects with TRD [2]; 60 mg, to 6 hours, n 11) | CADSS change from baseline, Median (subjects with TRD [2]; 60 mg, to 6 hours, n 11)
2.0: CADSS score, Median (subjects with TRD [2]; [11]) | CADSS change from baseline, Median (subjects with TRD [2]; [15])
0.8: CADSS change from baseline, Mean (subjects with TRD [2]; [23])
